Measurements taken from patent US20220265629A1, “TREATMENT OF SYSTOLIC DYSFUNCTION AND HEART FAILURE WITH REDUCED EJECTION FRACTION WITH THE COMPOUND (R)-4-(1-((3-(DIFLUOROMETHYL)-1-METHYL-1H-PYRAZOL-4-YL)SULFONYL)-1-FLUOROETHYL)-N-(ISOXAZOL-3-YL)PIPERIDINE-1-CARBOXAMIDE” (MyoKardia, Inc., priority 2019, published 2022).

System: healthy subjects
Experiment: Single ascending oral dose study in healthy volunteers: transthoracic echocardiography (TTE) pharmacodynamics
Type: in vivo, human
Conditions: for DBP placebo-corrected change from Baseline (LS mean difference) / E/A ratio placebo-corrected change from Baseline (LS mean difference) / E/e′(lateral) placebo-corrected change from Baseline (LS mean difference) / HR placebo-corrected change from Baseline (LS mean difference) / IVCT placebo-corrected change from Baseline (LS mean difference) / IVRT placebo-corrected change from Baseline (LS mean difference) / LVEDD placebo-corrected change from Baseline (LS mean difference) / LVEDV placebo-corrected change from Baseline (LS mean difference) / LVEF placebo-corrected change from Baseline (LS mean difference) / LVESD placebo-corrected change from Baseline (LS mean difference) / LVESV placebo-corrected change from Baseline (LS mean difference) / LVFS placebo-corrected change from Baseline (LS mean difference) / LVGCS placebo-corrected change from Baseline (LS mean difference) / LVGLS placebo-corrected change from Baseline (LS mean difference) / MPI placebo-corrected change from Baseline (LS mean difference) / PEP placebo-corrected change from Baseline (LS mean difference) / Peak A placebo-corrected change from Baseline (LS mean difference) / Peak E placebo-corrected change from Baseline (LS mean difference) / SBP placebo-corrected change from Baseline (LS mean difference) / SET placebo-corrected change from Baseline (LS mean difference) / Stroke Volume placebo-corrected change from Baseline (LS mean difference): 6 hours post-dose
Description: To assess pharmacodynamic effects, serial echocardiograms were performed. The sonographers used in the study completed Echo protocol training and submitted an example of a study for evaluation to the core laboratory for evaluation. The core TTE lab certified that the sonographer was able to perform the TTEs at a level satisfactory for obtaining the required protocol data.
These criteria were chosen to prevent subjects from having prolongation of SET that might lead to myocardial ischemia. Dose escalation stopping criteria also included observation of a Baseline-corrected, group mean relative increase of >20% in any 2 sequential TTE assessments in at least 2 measures of LV contractility: LVOT-VTI, LVFS, LVEF, or LVSV in subjects receiving Compound I. Placebo-controlled evaluation may have been considered. For this comparison, subjects who received placebo may have been pooled across cohorts.
SET as determined by TTE was assessed using summary statistics. Observations and change from Baseline were summarized by treatment at each time point and the maximum change from Baseline determined for each subject. In addition, categorical analyses were performed on the number of subjects with a change from Baseline>50 msec and the number of subjects with a change from Baseline>75 msec in 1 or any 2 sequential TTE assessments. The relationship to Compound I plasma concentration to SET was explored. An analysis of SET placebo-adjusted change from Baseline was also performed.
As the Cmax occurred at between 4 and 6 hours in most of the subjects, the TTE obtained at 6 hours postclose was considered the best timepoint to explore the relationship between concentration and pharmacological effect. TTEs obtained at 1.5 and 3 hours after dosing were before the Cmax and at 9 hours were after the peak Cmax. Based on the preclinical data, it was considered unlikely that there would be a prolonged lag between the Cmax and peak pharmacological effect. As the exposure after the administration of the 350 mg and 525 mg doses were very similar, it was decided to not only present the results from these groups separately, but also to combine the data from these groups. By combining the data from the 2 groups, the number of subjects closed was increased from 6 to 12, thus increasing the power to observe a statistically significant change from Baseline in the TTE parameters of interest.
An analysis of placebo-corrected change from Baseline at 6 hours postclose by Compound I plasma concentration bins is presented in Table 6 below.

[1] = 350 mg and 525 mg combined, 6 hours postdose
[2] = 350 mg and 525 mg combined, 12 hours postdose
[3] = concentration exceeded 2000 ng/mL (median 2592 ng/mL)
[4] = plasma concentrations >2000 ng/mL, 6 hours postdose

Compound: Cn1cc(S(=O)(=O)[C@@](C)(F)C2CCN(C(=O)Nc3ccon3)CC2)c(C(F)F)n1 [Compound I, (R)-4-(1-((3-(difluoromethyl)-1-methyl-1H-pyrazol-4-yl)sulfonyl)-1-fluoroethyl)-N-(isoxazol-3-yl)piperidine-1-carboxamide]
- LVEDD, highest observed change from Baseline (50 mg, 24 hours postdose): 0.103 (0.217) cm
- LVEF, maximum mean (SD) increase (100 mg, 12 hours postdose): 4.83 (2.65) %
- SET, observed mean (SD) increase (350 mg and 525 mg combined, 1.5 to 2 hours postdose): 18.0 (19.5) msec
- LVEDV, mean (SD) decrease [1]: −9.98 (7.83) mL
- LVESV, mean (SD) decrease [1]: −6.82 (5.99) mL
- LVOT-VTI, mean (SD) increase [1]: 2.28 (1.43) cm
- LVEDD, mean (SD) decrease [2]: −0.171 (0.177) cm
- LVSV, mean (SD) increase [2]: 7.623 (7.842) mL
- SET, largest observed mean (SD) increase (350 mg, 1.5 to 2 hours postdose): 19.2 (20.5) msec
- LVOT-VTI, maximum change from Baseline (350 mg, 6 hours postdose): 2.54 (1.78) cm
- LVSV, maximum mean (SD) increase (350 mg, 12 hours postdose): 10.848 (9.893) mL
- LVEDV, largest mean (SD) decrease (525 mg, 6 hours postdose): −12.5 (6.96) mL
- LVEF, maximum mean (SD) increase (525 mg, 6 hours postdose): 4.65 (1.45) %
- LVESV, largest mean (SD) decrease (525 mg, 6 hours postdose): −9.21 (3.18) mL
- LVEDD, largest observed mean (SD) decrease (525 mg, 12 hours postdose): −0.213 (0.221) cm
- LVESD, largest observed mean (SD) decrease (525 mg, 12 hours postdose): −0.455 (0.357) cm
- DBP placebo-corrected change from Baseline (LS mean difference) (plasma 0-1000 ng/mL): 2.277 mm Hg
- E/A ratio placebo-corrected change from Baseline (LS mean difference) (plasma 0-1000 ng/mL): 0.150
- E/e′(lateral) placebo-corrected change from Baseline (LS mean difference) (plasma 0-1000 ng/mL): −0.235
- HR placebo-corrected change from Baseline (LS mean difference) (plasma 0-1000 ng/mL): −1.070 bpm
- IVCT placebo-corrected change from Baseline (LS mean difference) (plasma 0-1000 ng/mL): 0.677 ms
- IVRT placebo-corrected change from Baseline (LS mean difference) (plasma 0-1000 ng/mL): 1.526 ms
- LVEDD placebo-corrected change from Baseline (LS mean difference) (plasma 0-1000 ng/mL): −0.014 cm
- LVEDV placebo-corrected change from Baseline (LS mean difference) (plasma 0-1000 ng/mL): -2.210 mL
- LVEF placebo-corrected change from Baseline (LS mean difference) (plasma 0-1000 ng/mL): 0.322%
- LVESD placebo-corrected change from Baseline (LS mean difference) (plasma 0-1000 ng/mL): 0.025 cm
- LVESV placebo-corrected change from Baseline (LS mean difference) (plasma 0-1000 ng/mL): -1.204 mL
- LVFS placebo-corrected change from Baseline (LS mean difference) (plasma 0-1000 ng/mL): −0.560%
- LVGCS placebo-corrected change from Baseline (LS mean difference) (plasma 0-1000 ng/mL): −1.076%
- LVGLS placebo-corrected change from Baseline (LS mean difference) (plasma 0-1000 ng/mL): −0.467%
- MPI placebo-corrected change from Baseline (LS mean difference) (plasma 0-1000 ng/mL): −0.007
- PEP placebo-corrected change from Baseline (LS mean difference) (plasma 0-1000 ng/mL): -2.190 ms
- Peak A placebo-corrected change from Baseline (LS mean difference) (plasma 0-1000 ng/mL): -3.09 cm/s
- Peak E placebo-corrected change from Baseline (LS mean difference) (plasma 0-1000 ng/mL): -966000 ×10⁻⁶ cm/s
- SBP placebo-corrected change from Baseline (LS mean difference) (plasma 0-1000 ng/mL): −0.623 mm Hg
- SET placebo-corrected change from Baseline (LS mean difference) (plasma 0-1000 ng/mL): 10.623 ms
- Stroke Volume placebo-corrected change from Baseline (LS mean difference) (plasma 0-1000 ng/mL): 2.631 mL
- DBP placebo-corrected change from Baseline (LS mean difference) (plasma 1001-2000 ng/mL): 2.937 mm Hg
- E/A ratio placebo-corrected change from Baseline (LS mean difference) (plasma 1001-2000 ng/mL): 0.177
- E/e′(lateral) placebo-corrected change from Baseline (LS mean difference) (plasma 1001-2000 ng/mL): 0.144
- HR placebo-corrected change from Baseline (LS mean difference) (plasma 1001-2000 ng/mL): 0.336 bpm
- IVCT placebo-corrected change from Baseline (LS mean difference) (plasma 1001-2000 ng/mL): 1.412 ms
- IVRT placebo-corrected change from Baseline (LS mean difference) (plasma 1001-2000 ng/mL): 0.148 ms
- LVEDD placebo-corrected change from Baseline (LS mean difference) (plasma 1001-2000 ng/mL): −0.041 cm
- LVEDV placebo-corrected change from Baseline (LS mean difference) (plasma 1001-2000 ng/mL): -6.100 mL
- LVEF placebo-corrected change from Baseline (LS mean difference) (plasma 1001-2000 ng/mL): 2.176%
- LVESD placebo-corrected change from Baseline (LS mean difference) (plasma 1001-2000 ng/mL): −0.159 cm
- LVESV placebo-corrected change from Baseline (LS mean difference) (plasma 1001-2000 ng/mL): -4.101 mL
- LVFS placebo-corrected change from Baseline (LS mean difference) (plasma 1001-2000 ng/mL): 3.549%
- LVGCS placebo-corrected change from Baseline (LS mean difference) (plasma 1001-2000 ng/mL): −1.383%
- LVGLS placebo-corrected change from Baseline (LS mean difference) (plasma 1001-2000 ng/mL): −1.274%
- MPI placebo-corrected change from Baseline (LS mean difference) (plasma 1001-2000 ng/mL): −0.021
- PEP placebo-corrected change from Baseline (LS mean difference) (plasma 1001-2000 ng/mL): -5.487 ms
- Peak A placebo-corrected change from Baseline (LS mean difference) (plasma 1001-2000 ng/mL): -2.87 cm/s
- Peak E placebo-corrected change from Baseline (LS mean difference) (plasma 1001-2000 ng/mL): -1.43 cm/s
- SBP placebo-corrected change from Baseline (LS mean difference) (plasma 1001-2000 ng/mL): 1.132 mm Hg
- SET placebo-corrected change from Baseline (LS mean difference) (plasma 1001-2000 ng/mL): 23.049 ms
- Stroke Volume placebo-corrected change from Baseline (LS mean difference) (plasma 1001-2000 ng/mL): 2.509 mL
- DBP placebo-corrected change from Baseline (LS mean difference) (plasma >2000 ng/mL): 1.540 mm Hg
- E/A ratio placebo-corrected change from Baseline (LS mean difference) (plasma >2000 ng/mL): −0.047
- E/e′(lateral) placebo-corrected change from Baseline (LS mean difference) (plasma >2000 ng/mL): −0.063
- HR placebo-corrected change from Baseline (LS mean difference) (plasma >2000 ng/mL): 2.871 bpm
- IVCT placebo-corrected change from Baseline (LS mean difference) (plasma >2000 ng/mL): 6.115 ms
- IVRT placebo-corrected change from Baseline (LS mean difference) (plasma >2000 ng/mL): 11.986 ms
- LVEDD placebo-corrected change from Baseline (LS mean difference) (plasma >2000 ng/mL): −0.115 cm
- LVEDV placebo-corrected change from Baseline (LS mean difference) (plasma >2000 ng/mL): -9.678 mL
- LVEF placebo-corrected change from Baseline (LS mean difference) (plasma >2000 ng/mL): 3.219%
- LVESD placebo-corrected change from Baseline (LS mean difference) (plasma >2000 ng/mL): −0.306 cm
- LVESV placebo-corrected change from Baseline (LS mean difference) (plasma >2000 ng/mL): -6.031 mL
- LVFS placebo-corrected change from Baseline (LS mean difference) (plasma >2000 ng/mL): 6.289%
- LVGCS placebo-corrected change from Baseline (LS mean difference) (plasma >2000 ng/mL): −2.854%
- LVGLS placebo-corrected change from Baseline (LS mean difference) (plasma >2000 ng/mL): −1.779%
- MPI placebo-corrected change from Baseline (LS mean difference) (plasma >2000 ng/mL): 0.033
- PEP placebo-corrected change from Baseline (LS mean difference) (plasma >2000 ng/mL): -2.131 ms
- Peak A placebo-corrected change from Baseline (LS mean difference) (plasma >2000 ng/mL): 657000 ×10⁻⁶ cm/s
- Peak E placebo-corrected change from Baseline (LS mean difference) (plasma >2000 ng/mL): -5.3 cm/s
- SBP placebo-corrected change from Baseline (LS mean difference) (plasma >2000 ng/mL): −1.572 mm Hg
- SET placebo-corrected change from Baseline (LS mean difference) (plasma >2000 ng/mL): 25.645 ms
- Stroke Volume placebo-corrected change from Baseline (LS mean difference) (plasma >2000 ng/mL): 8.197 mL
- LVEDD, mean decrease [3]: 0.12 cm
- LVEDV, mean decrease [3]: 9.68 mL
- LVEF, mean absolute increase [3]: 3.2%
- LVESD, mean decrease [3]: 0.31 cm
- LVESV, mean decrease [3]: 6.03 mL
- LVFS, mean absolute increase [3]: 6.3%
- LVGCS, mean absolute decrease [3]: 2.85%
- LVGLS, mean absolute decrease [3]: 1.78%
- LVSV, mean increase [3]: 8.2%
- SET, mean increase [3]: 25.7 ms
- diastolic function/relaxation (E/A ratio and E/e′) (plasma concentrations >2000 ng/mL): no significant effects
- SET, placebo-corrected change from Baseline (LS mean difference±SE) (plasma concentrations >2000 ng/mL (median 2425 ng/mL), 6 hours postdose): 25.6 ± 7.71 ms
- IVRT (mitral inflow doppler), placebo-corrected change from Baseline (LS mean difference±SE) [4]: 12.0 ± 3.92 ms
- LVEDV, placebo-corrected change from Baseline (LS mean difference±SE) [4]: -9.68 ± 2.95 mL
- LVEF, placebo-corrected change from Baseline (LS mean difference±SE) [4]: 3.22±1.48%
- LVESD, placebo-corrected change from Baseline (LS mean difference±SE) [4]: −0.306±0.077 cm
- LVESV, placebo-corrected change from Baseline (LS mean difference±SE) [4]: -6.03 ± 1.87 mL
- LVFS, placebo-corrected change from Baseline (LS mean difference±SE) [4]: 6.29±1.55%
- LVGCS, placebo-corrected change from Baseline (LS mean difference±SE) [4]: -2.85 ± 0.99%
- LVGLS, placebo-corrected change from Baseline (LS mean difference±SE) [4]: -1.78 ± 0.76%
- stroke volume, placebo-corrected change from Baseline (LS mean difference±SE) [4]: 8.20 ± 3.99 mL
